PubChem BioAssay AID2060893 (Molecular Pharmacology Branch, DTP, NCI, 2025)

Test system: K86415-001-R-J1-PDC complex spheroids, viability
Assay: Anticancer human tumor K86415-001-R-J1-PDC patient-derived lung adenocarcinoma cell line growth inhibition [RAS]
Settings: for IC50: curve of first compound; for viability, T/C: stronger effect = lower value; active means viability on the fitted dose curve at most 10% of control; inactive means the rest
Method in brief: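 Agents were tested in combination matrices in half-log decrements from a top concentration at or near clinical Cmax (10 microM if undetermined). Targets were multi-cell spheroids of tumour lines plus HUVEC and MSC stromal cells.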
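Further: spheroids exposed to agents for seven days before readout.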

CC1(C)CCC(Nc2ncc(C(F)(F)F)c(-c3c[nH]c4c(P(C)(C)=O)c(C#N)ccc34)n2)CN1 (configuration not stated) + CCn1c(-c2cc(N3CCN(C)CC3)cnc2C(C)OC)c2c3cc(ccc31)-c1csc(n1)CC(NC(=O)C1CC1C)C(=O)N1CCCC(N1)C(=O)OCC(C)(C)C2
inactive: viability, T/C (second compound 0.000949 µM, first compound 0.000949 µM) 57.1% | viability, T/C (second compound 0.000949 µM, first compound 0.003 µM) 45.9% | viability, T/C (second compound 0.000949 µM, first compound 0.00949 µM) 37.9% | viability, T/C (second compound 0.000949 µM, first compound 0.03 µM) 39.5% | viability, T/C (second compound 0.000949 µM, first compound 0.0949 µM) 42.2% | viability, T/C (second compound 0.000949 µM, first compound 0.3 µM) 39.5% | viability, T/C (second compound 0.003 µM, first compound 0.000949 µM) 24.9% | viability, T/C (second compound 0.003 µM, first compound 0.003 µM) 18.3% | viability, T/C (second compound 0.003 µM, first compound 0.00949 µM) 20.9% | viability, T/C (second compound 0.003 µM, first compound 0.03 µM) 20.8% | viability, T/C (second compound 0.003 µM, first compound 0.0949 µM) 24.6% | viability, T/C (second compound 0.003 µM, first compound 0.3 µM) 23.6% | viability, T/C (second compound 0.00949 µM, first compound 0.000949 µM) 10.8% | viability, T/C (second compound 0.00949 µM, first compound 0.003 µM) 10.4% | viability, T/C (second compound 0.00949 µM, first compound 0.00949 µM) 11.1% | viability, T/C (second compound 0.00949 µM, first compound 0.03 µM) 13.3% | viability, T/C (second compound 0.00949 µM, first compound 0.0949 µM) 12.4% | viability, T/C (second compound 0.00949 µM, first compound 0.3 µM) 14.3%
< 949 pM: IC50 (second compound 0.003 µM) | IC50 (second compound 0.00949 µM) | IC50 (second compound 0.03 µM) | IC50 (second compound 0.0949 µM) | IC50 (second compound 0.3 µM)
1190 pM: IC50 (second compound 0.000949 µM)
active: viability, T/C (second compound 0.03 µM, first compound 0.000949 µM) 6.32% | viability, T/C (second compound 0.03 µM, first compound 0.003 µM) 7.15% | viability, T/C (second compound 0.03 µM, first compound 0.00949 µM) 6.95% | viability, T/C (second compound 0.03 µM, first compound 0.03 µM) 7.05% | viability, T/C (second compound 0.03 µM, first compound 0.0949 µM) 6.99% | viability, T/C (second compound 0.03 µM, first compound 0.3 µM) 8.91% | viability, T/C (second compound 0.0949 µM, first compound 0.000949 µM) 5.16% | viability, T/C (second compound 0.0949 µM, first compound 0.003 µM) 5.23% | viability, T/C (second compound 0.0949 µM, first compound 0.00949 µM) 6.96% | viability, T/C (second compound 0.0949 µM, first compound 0.03 µM) 5.02% | viability, T/C (second compound 0.0949 µM, first compound 0.0949 µM) 6.21% | viability, T/C (second compound 0.0949 µM, first compound 0.3 µM) 7.98% | viability, T/C (second compound 0.3 µM, first compound 0.000949 µM) 3.6% | viability, T/C (second compound 0.3 µM, first compound 0.003 µM) 4.59% | viability, T/C (second compound 0.3 µM, first compound 0.00949 µM) 5.58% | viability, T/C (second compound 0.3 µM, first compound 0.03 µM) 6.23% | viability, T/C (second compound 0.3 µM, first compound 0.0949 µM) 5.28% | viability, T/C (second compound 0.3 µM, first compound 0.3 µM) 6.87%
